assay: Inhibition of recombinant NDM-1 (unknown origin) using fluorocillin as substrate at 30 uM incubated for 30 mins by fluorescence based assay; conditions: Bacteria

| Structure (SMILES) | inhibition |
| --- | --- |
| CN(CC#N)C(=O)c1ccc2c([N+](=O)[O-])cc([N+](=O)[O-])c(O)c2n1 | < 20% |
| CN(C)Cc1ccc2c(Cl)cc(Cl)c(O)c2n1 | 69% |
| O=C(c1cc([N+](=O)[O-])c2cccnc2c1O)N1CCOCC1 | 16% |
| CC(=O)Nc1ccc([N+](=O)[O-])c2cccnc12 | < 20% |
| N#Cc1ccc2c([N+](=O)[O-])cc([N+](=O)[O-])c(O)c2n1 | < 20% |
| N#CCN(Cc1ccccc1)C(=O)c1ccc2c([N+](=O)[O-])ccc(O)c2n1 | < 20% |
| O=S(=O)(O)c1ccc(O)c2ncccc12 | 67% |
| N#CCN(Cc1ccccc1)C(=O)c1ccc2c([N+](=O)[O-])cc([N+](=O)[O-])c(O)c2n1 | < 20% |
| O=[N+]([O-])c1ccc(N2CCCC2)c2ncccc12 | < 20% |
| Nc1c([N+](=O)[O-])cc([N+](=O)[O-])c2cccnc12 | < 20% |
| O=C(O)CN(CCN(CC(=O)O)CC(=O)O)CC(=O)O | 87% |
| CN(CC#N)Cc1cc([N+](=O)[O-])c2cccnc2c1O | 82% |

Second part, the molecule after the results:

| inhibition | Structure (SMILES) |
| --- | --- |
| 39% | O=C(O)c1ccc(O)c2ncccc12 |
| < 20% | Nc1ccc2cccc(O)c2n1 |
| < 20% | Oc1ccc(F)c2cccnc12 |
| < 20% | N#Cc1ccc2cccc(O)c2n1 |
| < 20% | O=C(O)c1ccc([N+](=O)[O-])c2cccnc12 |
| < 20% | N#CC1(NC(=O)c2ccc3c([N+](=O)[O-])ccc(O)c3n2)CC1 |
| < 20% | Oc1ccc2cccc(O)c2n1 |
| < 20% | NC(=O)c1ccc([N+](=O)[O-])c2cccnc12 |
| < 20% | CN(CC#N)C(=O)c1ccc2c([N+](=O)[O-])ccc(O)c2n1 |
| < 20% | O=C(O)COc1cccc2cccnc12 |
| < 20% | Cc1ccc2cccc(O)c2n1 |
| < 20% | CN(CC#N)C(=O)c1ccc2cccc(O)c2n1 |
| 35% | Cc1ccc2c([N+](=O)[O-])ccc(O)c2n1 |

assay: Inhibition of recombinant NDM-1 (unknown origin) using fluorocillin as substrate at 3 uM incubated for 30 mins by fluorescence based assay; conditions: Bacteria

| Structure (SMILES) | inhibition |
| --- | --- |
| CN(CC#N)C(=O)c1ccc2c([N+](=O)[O-])cc([N+](=O)[O-])c(O)c2n1 | < 20% |
| CN(C)Cc1ccc2c(Cl)cc(Cl)c(O)c2n1 | < 20% |
| O=C(c1cc([N+](=O)[O-])c2cccnc2c1O)N1CCOCC1 | < 20% |
| CC(=O)Nc1ccc([N+](=O)[O-])c2cccnc12 | < 20% |
| N#Cc1ccc2c([N+](=O)[O-])cc([N+](=O)[O-])c(O)c2n1 | < 20% |
| N#CCN(Cc1ccccc1)C(=O)c1ccc2c([N+](=O)[O-])ccc(O)c2n1 | < 20% |
| O=S(=O)(O)c1ccc(O)c2ncccc12 | < 20% |
| N#CCN(Cc1ccccc1)C(=O)c1ccc2c([N+](=O)[O-])cc([N+](=O)[O-])c(O)c2n1 | < 20% |
| O=[N+]([O-])c1ccc(N2CCCC2)c2ncccc12 | < 20% |
| Nc1c([N+](=O)[O-])cc([N+](=O)[O-])c2cccnc12 | < 20% |
| O=C(O)CN(CCN(CC(=O)O)CC(=O)O)CC(=O)O | 84% |
| CN(CC#N)Cc1cc([N+](=O)[O-])c2cccnc2c1O | < 20% |

More lines, now with the values ahead:

| inhibition | Structure (SMILES) |
| --- | --- |
| < 20% | O=C(O)c1ccc(O)c2ncccc12 |
| < 20% | Nc1ccc2cccc(O)c2n1 |
| < 20% | Oc1ccc(F)c2cccnc12 |
| < 20% | N#Cc1ccc2cccc(O)c2n1 |
| < 20% | O=C(O)c1ccc([N+](=O)[O-])c2cccnc12 |
| < 20% | N#CC1(NC(=O)c2ccc3c([N+](=O)[O-])ccc(O)c3n2)CC1 |
| < 20% | Oc1ccc2cccc(O)c2n1 |
| < 20% | NC(=O)c1ccc([N+](=O)[O-])c2cccnc12 |
| < 20% | CN(CC#N)C(=O)c1ccc2c([N+](=O)[O-])ccc(O)c2n1 |
| < 20% | O=C(O)COc1cccc2cccnc12 |
| < 20% | Cc1ccc2cccc(O)c2n1 |
| < 20% | CN(CC#N)C(=O)c1ccc2cccc(O)c2n1 |
| < 20% | Cc1ccc2c([N+](=O)[O-])ccc(O)c2n1 |

assay: Inhibition of recombinant NDM-1 (unknown origin) using fluorocillin as substrate at 10 uM incubated for 30 mins by fluorescence based assay; conditions: Bacteria

| Structure (SMILES) | inhibition |
| --- | --- |
| CN(CC#N)C(=O)c1ccc2c([N+](=O)[O-])cc([N+](=O)[O-])c(O)c2n1 | < 20% |
| CN(C)Cc1ccc2c(Cl)cc(Cl)c(O)c2n1 | < 20% |
| O=C(c1cc([N+](=O)[O-])c2cccnc2c1O)N1CCOCC1 | < 20% |
| CC(=O)Nc1ccc([N+](=O)[O-])c2cccnc12 | < 20% |
| N#Cc1ccc2c([N+](=O)[O-])cc([N+](=O)[O-])c(O)c2n1 | < 20% |
| N#CCN(Cc1ccccc1)C(=O)c1ccc2c([N+](=O)[O-])ccc(O)c2n1 | < 20% |
| O=S(=O)(O)c1ccc(O)c2ncccc12 | < 20% |
| N#CCN(Cc1ccccc1)C(=O)c1ccc2c([N+](=O)[O-])cc([N+](=O)[O-])c(O)c2n1 | < 20% |
| O=[N+]([O-])c1ccc(N2CCCC2)c2ncccc12 | < 20% |
| Nc1c([N+](=O)[O-])cc([N+](=O)[O-])c2cccnc12 | < 20% |
| O=C(O)CN(CCN(CC(=O)O)CC(=O)O)CC(=O)O | 87% |
| CN(CC#N)Cc1cc([N+](=O)[O-])c2cccnc2c1O | < 20% |

The next lines start with the values.

| inhibition | Structure (SMILES) |
| --- | --- |
| < 20% | O=C(O)c1ccc(O)c2ncccc12 |
| < 20% | Nc1ccc2cccc(O)c2n1 |
| < 20% | Oc1ccc(F)c2cccnc12 |
| < 20% | N#Cc1ccc2cccc(O)c2n1 |
| < 20% | O=C(O)c1ccc([N+](=O)[O-])c2cccnc12 |
| < 20% | N#CC1(NC(=O)c2ccc3c([N+](=O)[O-])ccc(O)c3n2)CC1 |
| < 20% | Oc1ccc2cccc(O)c2n1 |
| < 20% | NC(=O)c1ccc([N+](=O)[O-])c2cccnc12 |
| < 20% | CN(CC#N)C(=O)c1ccc2c([N+](=O)[O-])ccc(O)c2n1 |
| < 20% | O=C(O)COc1cccc2cccnc12 |
| < 20% | Cc1ccc2cccc(O)c2n1 |
| < 20% | CN(CC#N)C(=O)c1ccc2cccc(O)c2n1 |
| < 20% | Cc1ccc2c([N+](=O)[O-])ccc(O)c2n1 |

Source: ChEMBL document CHEMBL5046233, “Nitroxoline and its derivatives are potent inhibitors of metallo-β-lactamases” (Eur J Med Chem, 2022)
